{"source": "patent US5100892A", "about": "“Dihydropyridine vasodilator agents” (Glaxo Inc., priority 1990, dated 1992)", "key": {"[1]": {"test_system": "Spontaneously Hypertensive Rats", "assay": "Spontaneously Hypertensive Rat (SHR) Test, hemodynamics in anesthetized rats", "format": "in vivo, Spontaneously Hypertensive Rat (Sprague Dawley)", "details": "for HR (Heart Rate: change from basal) / LVPT (time for Left Ventricular Pressure to decay from peak to 50%, % of basal) / MBP (Mean Blood Pressure: change from basal) / RT64 (change in time from maximal relaxation, % of basal) / dP/dT40 (change in rate of systolic pressure increase of left ventricle measured at 40 mm Hg from basal): anesthetized SHR", "procedure": "Male Retired Breeder Spontaneously Hypertensive Rats (SHR) (Sprague Dawley, 250-350 g) are anesthetized by i.p. injection of Sodium Thiopental 50 mg/kg. A catheter is inserted into the duodenum for maintenance of anesthesia throughout the experiment. A tube is inserted through a lateral incision in the trachea. The left carotid artery is exposed and a Millar SPR-249 (2-F) pressure probe is inserted and passed into the left ventricle of the heart. Left ventricular pressure (LVP), the first differential of the LVP (+dP/dT,-dP/dT), the left ventricular end diastolic pressure (LVEDP) and the differential of the increase in LVP measured at a constant pressure of 40 mm Hg (dP/dT40) are measured via this probe. In addition to these parameters, two indices of myocardial diastolic relaxation are measured namely the RT64 (time in msec from the peak derivative of maximal relaxation to 64% of that value) and the Left Ventricular Pressure Time Constant (LVPT), the half-time for decay of the LVP from peak pressure to 50% of that pressure. […] Results also are shown graphically on a Gould RS3800 Recorder. A saline filled cannula is passed into the femoral vein for infusion of drugs and one is placed into the femoral artery for measurement and recording or arterial blood pressure (Statham P23Db pressure transducer). From this signal the diastolic, systolic and mean blood pressure are derived as well as the heart rate. After surgery, the preparation is left to stabilize for 45 minutes after which compounds, dissolved in polyethylene glycol, are slowly infused with a Sage Instruments Infusion pump into the femoral vein. […] After completion of the last infusion, hemodynamic parameters are observed over 30 min and then a standard dose of 3.0 mg/kg milrinone is infused (over 5 min) to test preparation responsiveness. In the SHR, the following results were obtained for several known cardiovascular agents and for the compound of Examples 10,11,15 and 16."}, "[2]": {"test_system": "rat aorta", "assay": "Rat Aorta Protocol: relaxation of phenylephrine-contracted rings of rat aorta (endothelium removed)", "procedure": "Rings of rat aorta (endothelium removed) were prepared for the measurement of isometric force in isolated tissue organ chambers essentially as previously described by T. J. Rimele et al in the Journal of Pharmacol. Exp. Ther. 245:102-111 (1988). The experimental portion of the protocol began with the addition of methylene blue (1×10^-5 M) and propranolol (1×10^-6 M) to each organ chamber to inhibit basal cGMP accumulation due to soluble guanylate cyclase and beta-adrenoceptors.Phenylephrine (1×10^-7 M) was then added and the rings were allowed to obtain a stable contractile response after which time, the test compound was added in a cumulative fashion. The relaxation induced by each concentration of the test compound was expressed as a percentage of the maximal relaxation produced by nitroprusside (1×10^-4 M) The results were graphically represented as a plot of the percentage relaxation vs. the negative log of the molar concentration of the test compound. The IC50 (concentration of test compound which produced a relaxation equivalent to 50% of the maximal relaxation induced by nitroprusside) was determined for each tissue."}}, "data": [{"smiles": "COC(=O)C1=C(C)NC(C)=C(C(=O)OCCNC(=O)COc2ccc(-c3cc(C#N)c(=O)[nH]c3C)cc2)C1c1cccc([N+](=O)[O-])c1", "note": "(racemic) [Example 10, (±)-2,6-dimethyl-3-carbomethoxy-4-(3-nitrophenyl)-5-{4-[1,2-dihydro-2-oxo-3-cyano-6-methyl-5(1H)-pyridy]phenoxymethylenecarboxyamidoethyloxycarbonyl}-1,4-dihydropyridine]", "values": [{"measurement": "HR (Heart Rate: change from basal)", "setting": "[1]; 0.3 mg/kg i.v.", "value": -1.8, "unit": "%"}, {"measurement": "LVPT (time for Left Ventricular Pressure to decay from peak to 50%, % of basal)", "setting": "[1]; 0.3 mg/kg i.v.", "value": -5.1, "unit": "%"}, {"measurement": "MBP (Mean Blood Pressure: change from basal)", "setting": "[1]; 0.3 mg/kg i.v.", "value": -2.6, "unit": "%"}, {"measurement": "RT64 (change in time from maximal relaxation, % of basal)", "setting": "[1]; 0.3 mg/kg i.v.", "value": -2.6, "unit": "%"}, {"measurement": "dP/dT40 (change in rate of systolic pressure increase of left ventricle measured at 40 mm Hg from basal)", "setting": "[1]; 0.3 mg/kg i.v.", "value": 0, "unit": "%"}, {"measurement": "HR (Heart Rate: change from basal)", "setting": "[1]; 1.0 mg/kg i.v.", "value": -2.5, "unit": "%"}, {"measurement": "LVPT (time for Left Ventricular Pressure to decay from peak to 50%, % of basal)", "setting": "[1]; 1.0 mg/kg i.v.", "value": -7.4, "unit": "%"}, {"measurement": "MBP (Mean Blood Pressure: change from basal)", "setting": "[1]; 1.0 mg/kg i.v.", "value": -3.8, "unit": "%"}, {"measurement": "RT64 (change in time from maximal relaxation, % of basal)", "setting": "[1]; 1.0 mg/kg i.v.", "value": -5.2, "unit": "%"}, {"measurement": "dP/dT40 (change in rate of systolic pressure increase of left ventricle measured at 40 mm Hg from basal)", "setting": "[1]; 1.0 mg/kg i.v.", "value": 1.5, "unit": "%"}, {"measurement": "HR (Heart Rate: change from basal)", "setting": "[1]; 3.0 mg/kg i.v.", "value": 1.1, "unit": "%"}, {"measurement": "LVPT (time for Left Ventricular Pressure to decay from peak to 50%, % of basal)", "setting": "[1]; 3.0 mg/kg i.v.", "value": -14, "unit": "%"}, {"measurement": "MBP (Mean Blood Pressure: change from basal)", "setting": "[1]; 3.0 mg/kg i.v.", "value": -6.3, "unit": "%"}, {"measurement": "RT64 (change in time from maximal relaxation, % of basal)", "setting": "[1]; 3.0 mg/kg i.v.", "value": -13.2, "unit": "%"}, {"measurement": "dP/dT40 (change in rate of systolic pressure increase of left ventricle measured at 40 mm Hg from basal)", "setting": "[1]; 3.0 mg/kg i.v.", "value": 4.2, "unit": "%"}, {"measurement": "HR (Heart Rate: change from basal)", "setting": "[1]; 10 mg/kg i.v.", "value": 6.4, "unit": "%"}, {"measurement": "LVPT (time for Left Ventricular Pressure to decay from peak to 50%, % of basal)", "setting": "[1]; 10 mg/kg i.v.", "value": -25, "unit": "%"}, {"measurement": "MBP (Mean Blood Pressure: change from basal)", "setting": "[1]; 10 mg/kg i.v.", "value": -23, "unit": "%"}, {"measurement": "RT64 (change in time from maximal relaxation, % of basal)", "setting": "[1]; 10 mg/kg i.v.", "value": -19.3, "unit": "%"}, {"measurement": "dP/dT40 (change in rate of systolic pressure increase of left ventricle measured at 40 mm Hg from basal)", "setting": "[1]; 10 mg/kg i.v.", "value": 24.7, "unit": "%"}, {"measurement": "effect on blood pressure (in words)", "setting": "[1]; 0.3 to 10 mg/kg i.v., SHR", "value": "hypotension"}, {"measurement": "effect on dP/dT40 (in words)", "setting": "[1]; 0.3 to 10 mg/kg i.v., SHR", "value": "an increase in dP/dT40"}, {"measurement": "effect on heart rate (in words)", "setting": "[1]; 0.3 to 10 mg/kg i.v., SHR", "value": "little change in heart rate"}, {"measurement": "effect on myocardial relaxation time constants (in words)", "setting": "[1]; 0.3 to 10 mg/kg i.v., SHR", "value": "reduction in the time constants for myocardial relaxation"}, {"measurement": "Emax at 100 µM", "setting": "[2]; highest dose tested (100 micromolar), read-out: maximal response (relaxation, % of maximal relaxation by nitroprusside)", "value": 96, "unit": "%"}, {"measurement": "IC50", "setting": "[2]; phenylephrine 1×10^-7 M contracted, methylene blue and propranolol present, read-out: IC50 (concentration producing relaxation equivalent to 50% of the maximal relaxation induced by nitroprusside)", "value": 2100, "unit": "nM"}]}]}
